The subject of the assay is nude mice, LOX melanoma ip, survival T/C. Description: NCI In Vivo Anticancer Drug Screen. Data for tumor model Human Amelanotic Melanoma (LOX) (intraperitoneal) in NU/NU BALB/C (nude) mice. The following applies: endpoint: median survival time, higher = longer survival. The method, then: The antitumor activity of compounds was measured in mice bearing transplantable tumors. Survival or tumor size were measured and the results are expressed as the measurement made in the treated group (T) divided by the measurement made in the vehicle treated control group (C). The tumor model used in this assay is Human Amelanotic Melanoma (LOX) (intraperitoneal) in NU/NU BALB/C (nude) mice

Where [1] appears, read: dose: 25.0 mg/kg/injection, schedule: Q04DX003 (ip), vehicle: saline with Tween-80.
Where [2] appears, read: dose: 50.0 mg/kg/injection, schedule: Q04DX003 (ip), vehicle: saline with Tween-80.
Setting [3] is: dose: 200.0 mg/kg/injection, schedule: Q04DX003 (ip), vehicle: saline with Tween-80.
Setting [4] is: dose: 37.5 mg/kg/injection, schedule: Q04DX003 (ip), vehicle: saline with Tween-80.
Setting [5] is: dose: 75.0 mg/kg/injection, schedule: Q04DX003 (ip), vehicle: saline with Tween-80.
Setting [6] is: dose: 150.0 mg/kg/injection, schedule: Q04DX003 (ip), vehicle: saline with Tween-80.
Setting [7] is: dose: 300.0 mg/kg/injection, schedule: Q04DX003 (ip), vehicle: saline with Tween-80.
[8] abbreviates: dose: 37.5 mg/kg/injection, schedule: Q04DX003 (ip), vehicle: saline.

SMILES strings stand for the structures. Where “and” joins values, the source holds several entries; their conditions need not be identical. Equal values may be shown once. Toxic doses and inconclusive results are not listed.

On to `O=C(/C=C/c1ccccc1)c1ccccc(=O)c1O`, for which the T/C by setting is: (dose: 6.85 mg/kg/injection, schedule: Q04DX003 (ip), vehicle: Klucel (hydroxypropylcellulose) (HPC)) 100 % of control; (dose: 13.7 mg/kg/injection, schedule: Q04DX003 (ip), vehicle: Klucel (hydroxypropylcellulose) (HPC)) 97 % of control; (dose: 27.5 mg/kg/injection, schedule: Q04DX003 (ip), vehicle: Klucel (hydroxypropylcellulose) (HPC)) 104 % of control; (dose: 55.0 mg/kg/injection, schedule: Q04DX003 (ip), vehicle: Klucel (hydroxypropylcellulose) (HPC)) 108 % of control; (dose: 110.0 mg/kg/injection, schedule: Q04DX003 (ip), vehicle: Klucel (hydroxypropylcellulose) (HPC)) 94 % of control.

For the compound `CCOC(=O)C1=C(Nc2ccc(OC)cc2)C(N)=NC1=N`, the T/C runs as follows: (dose: 50.0 mg/kg/injection, schedule: Q04DX003 (ip), vehicle: suspension in saline) 107 % of control; (dose: 100.0 mg/kg/injection, schedule: Q04DX003 (ip), vehicle: suspension in saline) 107 % of control.

As to `CCCCCC1c2cc(O)ccc2OC1N1CCOCC1` (stereo not given), the T/C runs as follows: under setting [1], 111 % of control; under setting [2], 100 % of control; under setting [3], 86 % of control.

For `COc1cc2c(c(OC)c1OC)-c1ccc(SC)c(=O)cc1[C@@H](NC(C)=O)CC2`, the T/C (dose: 0.25 mg/kg/injection, schedule: Q04DX003 (ip), vehicle: Klucel (hydroxypropylcellulose) (HPC)) was 163 % of control; the T/C (dose: 0.5 mg/kg/injection, schedule: Q04DX003 (ip), vehicle: Klucel (hydroxypropylcellulose) (HPC)) was 172 % of control and 196 % of control; the T/C (dose: 0.82 mg/kg/injection, schedule: Q04DX003 (ip), vehicle: Klucel (hydroxypropylcellulose) (HPC)) was 173 % of control; the T/C (dose: 1.38 mg/kg/injection, schedule: Q04DX003 (ip), vehicle: Klucel (hydroxypropylcellulose) (HPC)) was 193 % of control.

As for `CC1Oc2cc3c(-c4c(O)cc(O)c5c(O)c6c(cc45)OC(C)C(C)C6=O)c(O)cc(O)c3c(O)c2C(=O)C1C` (stereo not given), the T/C (dose: 1.0 mg/kg/injection, schedule: Q04DX003 (ip), vehicle: suspension in saline) is 124 % of control and the T/C (dose: 4.0 mg/kg/injection, schedule: Q04DX003 (ip), vehicle: suspension in saline) was 152 % of control.

Regarding `COc1cccc(Sc2ccc([N+](=O)[O-])c3no[n+]([O-])c23)c1`, the T/C runs as follows: under setting [4], 101 % of control; under setting [5], 120 % of control; under setting [6], 89 % of control; under setting [7], 101 % of control.

For the compound `NNC(=O)c1ccncc1`, the T/C by setting is: (dose: 18.75 mg/kg/injection, schedule: Q04DX003 (ip), vehicle: saline) 110 % of control; under setting [8], 109 % of control.

For `[Cl][Pt][Cl].[NH-]C(CO)C(=O)O` (stereo not given), the T/C (dose: 9.38 mg/kg/injection, schedule: Q04DX003 (ip), vehicle: water) is 119 % of control; the T/C (dose: 18.75 mg/kg/injection, schedule: Q04DX003 (ip), vehicle: water) was 114 % of control; the T/C (dose: 37.5 mg/kg/injection, schedule: Q04DX003 (ip), vehicle: water) was 123 % of control.

Take `C=COC(=O)C(Cc1ccccc1)NC(=O)OCc1ccccc1` (stereo not given): the T/C reads like this: (dose: 7.5 mg/kg/injection, schedule: Q04DX003 (ip), vehicle: saline with Tween-80) 97 % of control; (dose: 15.0 mg/kg/injection, schedule: Q04DX003 (ip), vehicle: saline with Tween-80) 101 % of control; (dose: 30.0 mg/kg/injection, schedule: Q04DX003 (ip), vehicle: saline with Tween-80) 105 % of control; (dose: 60.0 mg/kg/injection, schedule: Q04DX003 (ip), vehicle: saline with Tween-80) 95 % of control; under setting [5], 89 % of control; (dose: 120.0 mg/kg/injection, schedule: Q04DX003 (ip), vehicle: saline with Tween-80) 104 % of control.

On to `CC(=O)/C(=C\c1ccc(/C=C(\C(C)=O)C(=O)CCN(C)C)cc1)C(=O)CCN(C)C`, for which the T/C reads like this: under setting [2], 94 % of control; (dose: 100.0 mg/kg/injection, schedule: Q04DX003 (ip), vehicle: saline with Tween-80) 100 % of control; under setting [3], 105 % of control; (dose: 400.0 mg/kg/injection, schedule: Q04DX003 (ip), vehicle: saline with Tween-80) 107 % of control; (dose: 800.0 mg/kg/injection, schedule: Q04DX003 (ip), vehicle: saline with Tween-80) 111 % of control.

Take `N[C@@H](Cc1c[nH]c2ccccc12)C(=O)Nc1nncs1`: the T/C was 107 % of control (dose: 75.0 mg/kg/injection, schedule: Q04DX003 (ip), vehicle: suspension in saline); 94 % of control (dose: 150.0 mg/kg/injection, schedule: Q04DX003 (ip), vehicle: suspension in saline); 94 % of control (dose: 300.0 mg/kg/injection, schedule: Q04DX003 (ip), vehicle: suspension in saline); 119 % of control (dose: 600.0 mg/kg/injection, schedule: Q04DX003 (ip), vehicle: suspension in saline).

Consider `CC(=O)O[C@H]1C(=O)[C@@]2(C)C(C(OC(=O)c3ccccc3)[C@]3(O)C[C@H](OC(=O)C(OC(=O)CCCC(=O)NCCCN(C)C)C(NC(=O)c4ccccc4)c4ccccc4)C(C)=C1C3(C)C)C1(OC(C)=O)COC1C[C@@H]2O` (stereo not given in full), for which the T/C is, setting by setting: (dose: 2.5 mg/kg/injection, schedule: Q01DX009 (ip), vehicle: water) 155 % of control; (dose: 5.0 mg/kg/injection, schedule: Q01DX009 (ip), vehicle: water) 156 % of control; (dose: 10.0 mg/kg/injection, schedule: Q01DX009 (ip), vehicle: water) 157 % of control and 225 % of control; (dose: 20.0 mg/kg/injection, schedule: Q01DX009 (ip), vehicle: water) 205 % of control and 310 % of control.

Turning to `C=CCNC(=O)c1ccccc1SC(C)=O`, the T/C is 100 % of control under setting [4], 95 % of control under setting [5] and 93 % of control under setting [7].

Turning to `O=C(Nc1cccc(Cl)c1)ON1C(=O)C2C(C1=O)C1(Cl)C(Cl)C(Cl)C2(Cl)C1(Cl)Cl` (stereo not given), the T/C by setting is: under setting [5], 99 % of control; under setting [6], 86 % of control; under setting [7], 90 % of control; (dose: 600.0 mg/kg/injection, schedule: Q04DX003 (ip), vehicle: saline with Tween-80) 101 % of control.

Consider `O=C1c2cccc(NCCCNCCO)c2C(=O)c2cccc(NCCCNCCO)c21`, for which the T/C is, setting by setting: (dose: 4.69 mg/kg/injection, schedule: Q04DX003 (ip), vehicle: saline) 116 % of control; (dose: 6.75 mg/kg/injection, schedule: Q04DX003 (ip), vehicle: acid diluted with saline) 113 % of control and 97 % of control; (dose: 9.38 mg/kg/injection, schedule: Q04DX003 (ip), vehicle: saline) 124 % of control; (dose: 11.0 mg/kg/injection, schedule: Q04DX003 (ip), vehicle: acid diluted with saline) 117 % of control; (dose: 11.25 mg/kg/injection, schedule: Q04DX003 (ip), vehicle: acid diluted with saline) 97 % of control; (dose: 18.7 mg/kg/injection, schedule: Q04DX003 (ip), vehicle: acid diluted with saline) 111 % of control. For the same compound, the T/C by setting is: (dose: 18.75 mg/kg/injection, schedule: Q04DX003 (ip), vehicle: acid diluted with saline) 106 % of control; (dose: 31.25 mg/kg/injection, schedule: Q04DX003 (ip), vehicle: acid diluted with saline) 112 % of control; under setting [8], 105 % of control; (dose: 75.0 mg/kg/injection, schedule: Q04DX003 (ip), vehicle: saline) 86 % of control.

Consider `CCOC(=O)C(N)C[S][Sn]([CH3])([CH3])[Cl]` (stereo not given), for which the T/C is 99 % of control (dose: 12.5 mg/kg/injection, schedule: Q04DX003 (ip), vehicle: saline with Tween-80); 101 % of control under setting [1]; 104 % of control under setting [2].

Regarding `C=Cc1cc(OC)c2c(c1)c(=O)oc1c2cc(OC)c2c(O)ccc(C3OC(C)C(O)C(C)(O)C3O)c21` (stereo not given), the T/C (dose: 600.0 mg/kg/injection, schedule: Q04DX003 (ip), vehicle: DMSO) was 86 % of control.

For `CN=C(N)N/N=C(\C)c1ccc2oc3ccc(/C(C)=N/NC(N)=NC)cc3c2c1`, the T/C is 102 % of control and 123 % of control (dose: 18.0 mg/kg/injection, schedule: Q04DX003 (ip), vehicle: Klucel (hydroxypropylcellulose) (HPC)); 117 % of control and 99 % of control (dose: 30.0 mg/kg/injection, schedule: Q04DX003 (ip), vehicle: Klucel (hydroxypropylcellulose) (HPC)); 116 % of control (dose: 83.0 mg/kg/injection, schedule: Q04DX003 (ip), vehicle: Klucel (hydroxypropylcellulose) (HPC)); 88 % of control (dose: 83.33 mg/kg/injection, schedule: Q04DX003 (ip), vehicle: Klucel (hydroxypropylcellulose) (HPC)); 108 % of control (dose: 100.0 mg/kg/injection, schedule: Q04DX003 (ip), vehicle: Klucel (hydroxypropylcellulose) (HPC)).
